In patent publication US11357779B2 (G1 Therapeutics, Inc., priority 2018, dated 2022):
Like-named read-outs stand apart in the source and are kept apart here.

Experiment: Noncompartmental pharmacokinetic parameters (Cmax, Tmax, AUC, Racc) in QD and BID cohorts of Form B
Assay type: in vivo, human
Details: human, plasma, oral
Method: Analysis of plasma concentration versus time data for calculation of standard pharmacokinetic (PK) parameters following oral administration was conducted using Phoenix WinNonlin version 6.3 using actual blood sampling times.
The following pharmacokinetic parameters were calculated from the concentration versus time data obtained in Example 1 for each of the above QD (200 mg, 300 mg, 400 mg, 500 mg, or 650 mg dosed) and BID (100 mg, 150 mg, or 200 mg doses) Form B of Compound II dosage cohorts: • Cmax—the observed peak plasma concentration determined from the plasma concentration versus time data obtained on Day 1 and Day 29, as applicable; • Tmax—the time to reach the observed peak plasma concentration from the plasma concentration versus time data obtained on Day 1 and Day 29, as applicable; • AUC—area under the plasma concentration versus time curve during a dosing interval on Day 1 and Day 29, as applicable; and • Racc—accumulation ratio calculated as AUCDay 29/AUCDay 1.

Compound `CC(C)N1CCN(c2ccc(Nc3ncc4cc5n(c4n3)C3(CCCCC3)CNC5=O)nc2)CC1` [Compound I, 2′-((5-(4-isopropylpiperazin-1-yl)pyridin-2-yl)amino)-7′,8′-dihydro-6′H-spiro[cyclohexane-1,9′-pyrazino[1′,2′:1,5]pyrrolo[2,3-d]pyrimidin]-6′-one] has a Cmax (300 mg, Cohort 2, 300 mg QD of Form B, Day 1, upon exclusion of data for patient that vomited immediately after dosing, read-out: Cmax, Mean) of 55.2 ng/mL, an AUC(0-t) (300 mg, Cohort 2, 300 mg QD of Form B, Day 1, read-out: AUClast, Mean) of 413 ng·h/mL and an AUC(0-t) (300 mg, Cohort 2, 300 mg QD of Form B, Day 1, read-out: AUClast, Median) of 554 ng·h/mL. The Cmax (300 mg, Cohort 2, 300 mg QD of Form B, Day 1, read-out: Cmax, Mean) was 40.2 ng/mL, the Cmax (300 mg, Cohort 2, 300 mg QD of Form B, Day 1, read-out: Cmax, Median) was 44.3 ng/mL and the Tmax (300 mg, Cohort 2, 300 mg QD of Form B, Day 1, read-out: Tmax, Mean) was 4.67 h. For the same compound, the Tmax (300 mg, Cohort 2, 300 mg QD of Form B, Day 1, read-out: Tmax, Median) was 4 h, the AUC(0-t) (300 mg, Compound I, 300 mg QD of Form B, Cohort 2, Day 29, read-out: AUClast (Mean)) was 592 ng·h/mL and the AUC(0-t) (300 mg, Compound I, 300 mg QD of Form B, Cohort 2, Day 29, read-out: AUClast (Median)) was 604 ng·h/mL. For the same compound, the Cmax (300 mg, Compound I, 300 mg QD of Form B, Cohort 2, Day 29, read-out: Cmax (Mean)) was 47 ng/mL, the Cmax (300 mg, Compound I, 300 mg QD of Form B, Cohort 2, Day 29, read-out: Cmax (Median)) was 40.5 ng/mL and the Tmax (300 mg, Compound I, 300 mg QD of Form B, Cohort 2, Day 29, read-out: Tmax (Mean)) was 6 h. It also gave a Tmax (300 mg, Compound I, 300 mg QD of Form B, Cohort 2, Day 29, read-out: Tmax (Median)) of 4 h, an AUC(0-t) (400 mg, Cohort 3, 400 mg QD of Form B, Day 1, read-out: AUClast, Mean) of 202 ng·h/mL and an AUC(0-t) (400 mg, Cohort 3, 400 mg QD of Form B, Day 1, read-out: AUClast, Median) of 183 ng·h/mL. The Cmax (400 mg, Cohort 3, 400 mg QD of Form B, Day 1, read-out: Cmax, Mean) was 20.1 ng/mL, the Cmax (400 mg, Cohort 3, 400 mg QD of Form B, Day 1, read-out: Cmax, Median) was 21.6 ng/mL and the Tmax (400 mg, Cohort 3, 400 mg QD of Form B, Day 1, read-out: Tmax, Mean) was 6 h. The Tmax (400 mg, Cohort 3, 400 mg QD of Form B, Day 1, read-out: Tmax, Median) was 6 h, the AUC(0-t) (400 mg, Compound I, 400 mg QD of Form B, Cohort 3, Day 29, read-out: AUClast (Mean)) was 278 ng·h/mL and the AUC(0-t) (400 mg, Compound I, 400 mg QD of Form B, Cohort 3, Day 29, read-out: AUClast (Median)) was 348 ng·h/mL. It also gave a Cmax (400 mg, Compound I, 400 mg QD of Form B, Cohort 3, Day 29, read-out: Cmax (Mean)) of 19 ng/mL, a Cmax (400 mg, Compound I, 400 mg QD of Form B, Cohort 3, Day 29, read-out: Cmax (Median)) of 23.5 ng/mL and a Tmax (400 mg, Compound I, 400 mg QD of Form B, Cohort 3, Day 29, read-out: Tmax (Mean)) of 5.33 h. For the same compound, the Tmax (400 mg, Compound I, 400 mg QD of Form B, Cohort 3, Day 29, read-out: Tmax (Median)) was 6 h, the AUC(0-t) (500 mg, Cohort 4, 500 mg QD of Form B, Day 1, read-out: AUClast, Mean) was 577 ng·h/mL and the AUC(0-t) (500 mg, Cohort 4, 500 mg QD of Form B, Day 1, read-out: AUClast, Median) was 611 ng·h/mL. The Cmax (500 mg, Cohort 4, 500 mg QD of Form B, Day 1, read-out: Cmax, Mean) was 48.9 ng/mL, the Cmax (500 mg, Cohort 4, 500 mg QD of Form B, Day 1, read-out: Cmax, Median) was 49.6 ng/mL and the Tmax (500 mg, Cohort 4, 500 mg QD of Form B, Day 1, read-out: Tmax, Mean) was 5.75 h. For the same compound, the Tmax (500 mg, Cohort 4, 500 mg QD of Form B, Day 1, read-out: Tmax, Median) was 6 h, the AUC(0-t) (500 mg, Compound I, 500 mg QD of Form B, Cohort 4, Day 29, read-out: AUClast (Mean)) was 607 ng·h/mL and the AUC(0-t) (500 mg, Compound I, 500 mg QD of Form B, Cohort 4, Day 29, read-out: AUClast (Median)) was 591 ng·h/mL. It also gave a Cmax (500 mg, Compound I, 500 mg QD of Form B, Cohort 4, Day 29, read-out: Cmax (Mean)) of 43.2 ng/mL, a Cmax (500 mg, Compound I, 500 mg QD of Form B, Cohort 4, Day 29, read-out: Cmax (Median)) of 45 ng/mL and a Tmax (500 mg, Compound I, 500 mg QD of Form B, Cohort 4, Day 29, read-out: Tmax (Mean)) of 5.33 h. It also gave a Tmax (500 mg, Compound I, 500 mg QD of Form B, Cohort 4, Day 29, read-out: Tmax (Median)) of 6 h, an AUC(0-t) (650 mg, Cohort 5, 650 mg QD of Form B, Day 1, read-out: AUClast, Mean) of 799 ng·h/mL and an AUC(0-t) (650 mg, Cohort 5, 650 mg QD of Form B, Day 1, read-out: AUClast, Median) of 805 ng·h/mL. The Cmax (650 mg, Cohort 5, 650 mg QD of Form B, Day 1, read-out: Cmax, Mean) was 62.5 ng/mL, the Cmax (650 mg, Cohort 5, 650 mg QD of Form B, Day 1, read-out: Cmax, Median) was 67 ng/mL and the Tmax (650 mg, Cohort 5, 650 mg QD of Form B, Day 1, read-out: Tmax, Mean) was 7.67 h. It also gave a Tmax (650 mg, Cohort 5, 650 mg QD of Form B, Day 1, read-out: Tmax, Median) of 8 h, an AUC(0-t) (650 mg, Compound I, 650 mg QD of Form B, Cohort 5, Day 29, read-out: AUClast (Mean)) of 607 ng·h/mL and an AUC(0-t) (650 mg, Compound I, 650 mg QD of Form B, Cohort 5, Day 29, read-out: AUClast (Median)) of 591 ng·h/mL. For the same compound, the Cmax (650 mg, Compound I, 650 mg QD of Form B, Cohort 5, Day 29, read-out: Cmax (Mean)) was 43.2 ng/mL, the Cmax (650 mg, Compound I, 650 mg QD of Form B, Cohort 5, Day 29, read-out: Cmax (Median)) was 45 ng/mL and the Tmax (650 mg, Compound I, 650 mg QD of Form B, Cohort 5, Day 29, read-out: Tmax (Mean)) was 5.33 h. The Tmax (650 mg, Compound I, 650 mg QD of Form B, Cohort 5, Day 29, read-out: Tmax (Median)) was 6 h.
